Results published in patent US11679140B2, “Prevention and/or treatment of hearing loss or impairment” (INSTITUT PASTEUR, priority 2015, dated 2023).
Entries after “also recorded” stand apart in the source; their conditions may differ.

How the values were obtained:
[1] = test system: mouse embryonic fibroblasts; test: H2O2-induced peroxisome proliferation in mouse embryonic fibroblasts; type: cell-based
Procedure: Fibroblasts were isolated from mouse embryos at embryonic day 13.5 and cultured as described by Xu (2005). The cells were incubated in DMEM (Gibco) supplemented with 0.1 mM β-mercaptoethanol, and 0.5 mM H2O2 for 4 hours at 37° C., under normoxic conditions (95% air). The culture medium was then replaced with H2O2-free medium. Cell viability was checked 18 hours after H2O2 treatment, by measuring mitochondrial reductase activity with the MTT (3-(4,5-dimethylthiazol-2-yl)-2,5-diphenyl tetrazolium bromide) (Sigma M2128) assay. A polyclonal antibody against peroxisome membrane protein 70 (PMP70, Abcam ab3421) was used to label peroxisomes.

Pjvk−/− mice = test: Auditory brainstem responses (ABR) in Pjvk−/− mice; type: in vivo, mouse; conditions: for recovery of ABR wave I latency and ABR interwave I-IV: treated Pjvk−/− mice
Procedure: (§1) Auditory tests were performed in an anechoic room. They consisted of distortion-product otoacoustic emissions (DPOAEs), auditory brainstem responses (ABRs), electrically-evoked brainstem responses (EEBRs), and cochlear potentials. Mice were anesthetized with an intraperitoneal injection of a ketamine and levomepromazin mixture (100 mg/kg: 5 mg/kg) and their core temperature was kept at 37° C. with the help of a servo-controlled heating pad. The DPOAE at frequency 2f1-f2 was recorded in response to two equal level primary tones, f1 and f2, with f2/f1=1.20 (CubeDis system, Mimosa Acoustics; ER10B microphone, Etymotic Res.). Frequency f2 was swept at 1/10th octave steps from 4 to 20 kHz, and DPOAE level was plotted against frequency f2 (primary tone levels increased from 20 to 70 dB SPL in 10 dB steps, then to 75 dB SPL). DPOAE threshold was defined as the smallest primary level giving rise to a detectable DPOAE. ABRs in response to calibrated short tone bursts in the 5-40 kHz range (repetition rate 17/s) were derived from the synchronous averaging of electroencephalograms recorded between subcutaneous stainless steel electrodes at the vertex and ipsilateral mastoid, with the help of a standard digital averaging system (CED1401+). A hundred responses to the tone bursts were averaged except within 10 dB of the ABR threshold (defined as the smallest tone-burst level giving rise to at least one repeatable wave above noise background level, 150 nV in an anesthetized animal), for which 300 tone bursts were used. Once ABR thresholds had been assessed, ABRs in response to 95 and 105 dB SPL tone bursts (100 averages) were collected for analysis of suprathreshold ABR waveforms, amplitudes and latencies. Controlled sound exposure was applied with the same acoustic probe used for ABRs without moving the sound system, so that pre- and post-exposure ABRs shared the same calibration. Intense stimuli were the same tone-bursts used for ABR measurements at 105 dB SPL, presented 1,000 times at the same repetition rate of 17/s. […]
N-acetyl-L-cysteine (L-NAC; Sigma) or taurine (Sigma) was administrated to pregnant Pjvk^−/− mice in the drinking water. A daily dose of 1% L-NAC or 2% taurine was given to the mother during and after pregnancy, so that pups received them from birth on by feeding on the mother's milk. The treatment was continued until P21, and the auditory function of the treated Pjvk^−/− pups was tested at P21.

[2] = test system: Pjvk−/− mice (OHC function); test: Distortion-product otoacoustic emissions (DPOAE) in Pjvk−/− mice; type: in vivo, mouse; conditions: antioxidant-treated Pjvk−/− pups, around P21
Procedure: as §1, with “DPOAE threshold was defined as the smallest primary level giving rise to a detectable DPOAE.” left out, “A hundred responses to the tone bursts were averaged except within 10 dB of the ABR threshold (defined as the smallest tone-burst level giving rise to at least one repeatable wave above noise background level, 150 nV in an anesthetized animal), for which 300 tone bursts were used.” left out, “latencies.” for “latencies. Controlled sound exposure was applied with the same acoustic probe used for ABRs without moving the sound system, so that pre- and post-exposure ABRs shared the same calibration. Intense stimuli were the same tone-bursts used for ABR measurements at 105 dB SPL, presented 1,000 times at the same repetition rate of 17/s.”

[3] = test system: Pjvk−/− mice (auditory neurons); test: Electrically-evoked brainstem responses (EEBR) with controlled electrical stimulation in Pjvk−/− mice; type: in vivo, mouse; conditions: for EEBR wave E IV amplitude / resistance to high-rate electrical stimulation: 200/s for 1 minute, treated Pjvk−/− mice
Source text: Electrical stimulations of the eighth cranial nerve were delivered by a silver electrode placed in the round-window niche and excited by biphasic electrical impulses (neutral electrode in neck muscles; peak amplitude of electrical stimulus about 0.5 V; duration of the positive and negative phases 150 microseconds; adjustable repetition rate). EEBRs were extracted using the same setup as for ABRs (Roux et al., 2006), in response to 100 electrical impulses presented with alternating polarities (repetition rate 17 Hz). EEBR threshold was defined as the smallest electrical amplitude eliciting repeatable waves above noise background level (the same as for ABRs), labelled from E II to E IV in reference to their ABR equivalents II-IV. Controlled electrical stimulation was applied at 5 dB above EEBR detection threshold with a 200 Hz repetition rate. Occasionally, the silver electrode on the round window served for recording Compound Action Potentials (CAPs) in response to the same tone-bursts used for ABR studies (averages of 32 presentations, repetition rates 17/s), prior to EEBR data collection. These recordings served to check that CAP thresholds and ABR thresholds were within 2 dB of each other at all frequencies, and the exact position of ABR wave I could be ascertained form the larger wave N1, its equivalent on CAP recordings. This was particularly important in mice with abnormally small wave I to avoid incorrect identifications (when wave I was reduced to a very small flattened deflection resembling a summating potential, the slightly larger wave II might have been mistakenly labelled wave I on ABR recordings, while wave N1, even when small, kept its characteristic shape).
Intracochlear viral transduction was carried out as described by Akil et al. (2012). […]
Which cells are the targets of the pejvakin defect, and are they all hypervulnerable to sound exposure? […] Moreover, Electrically-Evoked Brainstem Responses (EEBR) to a direct electric stimulation of the auditory neurons, which test the response of the auditory pathway beyond the cochlea, was also analysed. […]

[4] = antioxidant-treated Pjvk−/− mice, P21

Q: What does the source list for `OO` [H2O2]?
A: increase in number of peroxisomes after H2O2 treatment, Pjvk+/+ fibroblasts ([1]; 0.5 mM H2O2, Pjvk+/+ MEFs): 46%; number of peroxisomes after H2O2 treatment, Pjvk−/− fibroblasts ([1]; 0.5 mM H2O2, Pjvk−/− MEFs): remained unchanged

Q: What does the source list for `NCCS(=O)(=O)O` [taurine]?
A: recovery of ABR wave I latency and ABR interwave I-IV (Pjvk−/− mice; P21): no significant recovery; effect on OHCs (DPOAE) [2]: no beneficial effect on OHCs

Q: Which results are given for `CC(=O)N[C@@H](CS)C(=O)O` [N-acetyl cysteine, N-acetyl-L-cysteine]?
A: EEBR wave E IV amplitude / resistance to high-rate electrical stimulation [3]: resisted to high-rate electric stimulation of auditory pathways better than untreated; EEBR wave E IV amplitude / resistance to high-rate electrical stimulation ([3]; listed as NAC): remained unaffected; recovery of neuronal function after high-rate electrical stimulation ([3]; 5 min after high-rate exposure): Full recovery of neuronal function; protective effect on IHCs and neurons (Pjvk−/− mice; Pjvk−/− mice): moderate protective effect; number of auditory neurons that responded to sound stimulation in synchrony (Pjvk−/− mice; Pjvk−/− pups treated via mother's milk): restored; ABR threshold at 10 kHz (Pjvk−/− mice; antioxidant via mother's drinking water/milk, Pjvk−/− pups tested around P21): 72.2±9.3 dB SPL; ABR wave I amplitude (in words) (Pjvk−/− mice; [4]): fell within the normative range; ABR wave I latency (Pjvk−/− mice; [4]): 1.55 ± 0.18 ms; amplitude of ABR wave I in response to 105 dB SPL (Pjvk−/− mice; [4]): 4.35±1.16 μV; ABR interwave I-IV latency (Pjvk−/− mice; antioxidant-treated Pjvk−/− pups, P21): 2.91 ± 0.32 ms; ABR thresholds (recovery) (Pjvk−/− mice; antioxidant-treated vs untreated Pjvk−/− pups, P21, listed as NAC): slight recovery; also recorded: slightly improved; recovery of ABR wave I latency and ABR interwave I-IV (Pjvk−/− mice; P21): no significant recovery; effect on OHCs (DPOAE) [2]: no beneficial effect on OHCs
